Values joined by “and” are separate entries in the source; they are usually repeats but may differ in a detail not shown here. Equal values may be shown once. “Also recorded” adds a separate entry of the source.
Columns and labels:
H-Ras [1] = tested on: H-Ras; design: method as in PMID 27265506; settings: cited from earlier work
AT1R = experiment: Endosomal BRET assay of AngII-mediated AT1R internalization (AT1R-RlucII / Endo-rGFP; HTS, validation, concentration-response); assay type: cell-based, human; settings: 50 μM
Text: We performed a HT campaign in HEK293 cells using the bystander endosomal BRET sensor, which consists of a Renilla luciferase (RlucII)-tagged AT1R and an acceptor renilla GFP (rGFP) anchored to endosomes through an Endofin-FYVE (Endo-rGFP) domain[12]. AngII-mediated trafficking of AT1R to endosomes was screened against commercial libraries of ~115,000 small molecules (Fig. 1a and Supplementary Data 1). Because our assay is based on luminescence and fluorescence, we excluded 6610 compounds that quenched more than 50% of the luciferase or GFP signals. After excluding 5 AT1R antagonists, we conserved hit compounds blocking by more than 40%, as well as those potentiating by more than 100% receptor internalization. From this collection of 943 compounds, a second validation on AT1R internalization was performed using the same BRET assay, as well as on the agonist-mediated B2R internalization, this time using B2R-RlucII and Endo-rGFP. Only compounds that were revalidated on AT1R and affected B2R endocytosis were kept, which included forty hits (20 potentiators and 20 inhibitors) (Fig. 1b and Supplementary Data 2). We focused on inhibitors that were commercially available at the beginning of the project and tested their cell toxicity by microscopy, looking at cells expressing B2R tagged with YFP, which highlights cell contours and potential morphological changes, such as rounding up of cells following treatment with 50 μM of the compounds that may have indicated cell death. None of the inhibitors tested caused abnormal cell morphological changes when cells were treated with compounds as compared to DMSO-treated cells. Inhibitors were also assessed in terms of structure novelty, derivatization potential, and commercial availability of analogs (within 95–98% similarity from Tanimoto metric, Sci-Finder, https://scifinder-n.cas.org), for structure-activity relationship studies (SAR). They were scored 1–5, from best to worst. We excluded compounds with potential nucleophilic reactivity (e.g., Michael addition: compounds 7, 26, and 27), those reported to have biological activities (compounds 8, 20, 25, 30, and 35) and/or showing autofluorescence (compound 26). Compound 19 ranked high, but only had one other molecule with a similar structure available. Although other molecules could be interesting in their own rights as endocytosis inhibitors (e.g., compounds 1, 9, 11, 12, 13, 24, 31, and 37), we focused on compound 21 (Fig. 1c) because not only did it rank high in our analysis, but it was also the only compound with substantially more similar analogs commercially available at the time of these investigations. In the screen and the follow-up validation assay, 21 inhibited more than 50% AT1R internalization and more than 65% B2R internalization (Supplementary Data 2). […] Because β-arrestins are critically involved in GPCR endocytosis and trafficking in cells, we assessed 21’s effects on β-arrestins’ recruitment to AT1R and B2R at the PM using a BRET assay, as well as their trafficking into endosomes by microscopy.
The chemical library used for initial screening was from Chembridge DiverSet™ (60,000 compounds), Maybridge HitFinder™ (16,000 compounds), Maybridge (selected, 16,000 compounds), SPECS (selected, 16000 compounds), Microsource Discovery Spectrum (2000 compounds), Biomol (natural products, 500 compounds), Prestwick (commercialized products, 1120 compounds), SIGMA LopacTM (1280 compounds) and internal collection (synthesized at Université de Montréal-IRIC, ~4000 compounds). Compounds were all assigned an Université de Montréal number (UM) for internal use. Screen was performed at IRIC HTS facility. KINOMEscan™ profiling was serviced by Eurofin/DiscoverX (San Diego, USA).
HEK293SL cells were seeded at a density of 7.5 × 10^5 cells per 100-mm dish and 24 h later, transiently transfected as such. […]

[2] = tested on: ERK1/2 activation by AT1R; experiment: Western blot of AT1R-mediated ERK1/2 phosphorylation; assay type: cell-based, human; settings: 50 μM
Procedure: HEK293SL cells (10^5 cells per well) were seeded in a poly-L-lysine-coated six-well plate and transiently transfected with 3 μg Flag-AT1R, HA-B2R or HA-β2AR and/or 500 ng Flag-MEK1-WT, Flag-MEK1-DD, Flag-BRAF-WT, Flag-BRAF-V600E, Flag-K-Ras-WT, Flag-K-Ras-G12V, HA-ARF6-WT, or HA-ARF6-T27N. Gαq/11 KO and βarr1/2 KO cells were seeded onto 100 mm dishes at a density of 10^6 cells per dish. Next day, cells were transfected with 3 μg AT1R alone or along with 500 ng of β-arrestin2 using PEI. After 18 h of transfection, cells were detached and re-seeded onto poly-L-lysine coated 12-well plates (~1.5–2 × 10^5cells/well) for subsequent experiments. Forty-eight hours post transfection, in a 37 °C water bath, cells were serum-starved for 30 min, pretreated with DMSO (0.1%) or compound 21/Rasarfin (50 µM or at indicated concentrations) for 30 min, then stimulated or not with the indicated ligand [AngII (1 µM), BK (1 µM), Iso (10 µM) or EGF (100 ng/ml)] at indicated times. Cells were put on ice, washed with PBS and solubilized in 2x laemmli buffer (250 mM Tris–HCl pH 6.8, 2% SDS (w/v), 10% glycerol (v/v), 0.01% bromophenol blue (w/v) and 5% β-mercaptoethanol (v/v)) by heating at 65 °C for 15 min. Lysates were resolved on 10 or 14% SDS-PAGE, transferred to nitrocellulose membranes and immunoblotted for p-ERK1/2, ERK1/2, p-Akt, Akt, HA, Myc, β-actin or FLAG. ImageLab 5.2 software was used to quantify the digital blots as fold of the phosphorylated protein over total protein, which were then normalized as indicated in the figure legends. Uncropped immunoblots are provided in the Source Data file.

MDA-MB-231 cells [3] = experiment: Cell proliferation assay (IncuCyte confluence), MDA-MB-231; assay type: cell-based, human; settings: 10 µM
Procedure: Cell proliferation was measured by a label-free, non-invasive cellular confluence assay using IncuCyte Live-Cell Imaging Systems (Essen Bioscience, Ann Arbor, MI, USA). MDA-MB-231 breast cancer and A549 lung carcinomas cells (1500 cells in 150 μl/well) were seeded overnight on a clear 96-well plate. Twenty-four hours later, the cells were treated with 0.1% DMSO, or different concentrations of Rasarfin (as indicated), or 10 µM of 21.4 or 21.8 for 96 h total. The plate was placed in an XL-3 incubation chamber maintained at 37 °C and the cells were photographed using a ×4 objective, every 3 h for 4 days. Cell confluence was calculated using IncuCyte S3 software (2019A) and cell proliferation was expressed as an increase in the percentage of confluence. Experiments were done in triplicate and repeated three times.

MDA-MB-231 cells [4] = experiment: Cell viability assay (MTT), MDA-MB-231; assay type: cell-based, human; settings: for cell viability (MTT signal): S_Fig12f, listed as Comp 21.4
Procedure: MDA-MB-231 breast cancer cells and A549 lung carcinomas (1500 cells in 150 μl/well) were seeded overnight on a clear 96-well plate. Twenty-four hours later, the cells were treated with 0.1% DMSO, or different concentrations of Rasarfin (as indicated), or 10 µM of 21.4, 21.8 (MDA-MB-231 breast cancer cells) or Doxorubicin for the indicated times at 37 °C. At each time point, 10 μl of 5 mg/ml MTT was added to each well and the plates were incubated for an additional 4 h at 37 °C. The absorbance at 590 nm was measured by plate reader. Experiments were done in triplicate and repeated three times.

H-Ras [5] = target: H-Ras (Homo sapiens, UniProt P01112); experiment: In vitro mant-GTP exchange assay, purified H-Ras with purified SOS1; assay type: biochemical; design: the cDNA of H-Ras (full length) was obtained by RT-PCR of HEK293SL; GST (N); host or cells: E. coli BL21; settings: 50 μM
Chain of H-Ras (Homo sapiens, UniProt P01112) (P01112 whole entry): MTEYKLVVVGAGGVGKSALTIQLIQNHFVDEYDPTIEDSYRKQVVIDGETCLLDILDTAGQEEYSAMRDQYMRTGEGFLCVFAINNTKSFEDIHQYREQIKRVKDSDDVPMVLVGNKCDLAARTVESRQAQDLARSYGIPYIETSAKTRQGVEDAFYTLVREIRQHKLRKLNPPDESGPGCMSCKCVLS
Procedure: Ras activity was assessed in a 384-well black bottom plate using the mant-GTP exchange factor assay that measures the uptake of the fluorescent nucleotide analog N-methylanthraniloyl-GTP (mant-GTP) into GTPases. For Ras activation, 2X exchange buffer, 1.66 μg of purified pGEX-6P-1-H-Ras or pGEX-6P-1-K-Ras-WT or pGEX-6P-1-K-Ras-Y32A were added per well in presence of DMSO, different concentrations of Rasarfin (as indicated) or 50 µM of compounds 21.4, 21.7, or 21.8. Using the Infinite 200 Pro plate reader (Tecan) with filters set at 360 nm and 440 nm for detecting the excitation and emissions, respectively, and temperature set at 20 °C, 5 readings were recorded every 5 s before the addition of either H2O, 40 mM EDTA or 0.66 μg purified SOS1. The fluorescence of mant-GTP uptake was measured every 30 sec for 30 min and quantified as the delta relative fluorescence units (RFU), which was calculated as the RFU post-addition minus the 5 averaged RFU pre-addition, per condition.

Ras = tested on: Ras; design: method as in PMID 22431598; settings: cited from earlier work

Compound	inhibition of AT1R internalization into endosomes (Fig. 8a) (AT1R)	inhibition of AT1R-mediated ERK1/2 (MAPK) activation (Fig. 8b) [2]	Ras exchange activity, mant-GTP loading into H-Ras with SOS1 (Fig. 8c) (H-Ras [5])	other results
NAV-2729				block of H-Ras (H-Ras [1]): inefficacious to block H-Ras
CC(C)C(=O)N1CCN(c2ccc(NC(=O)c3cc4ccccc4o3)cc2)CC1 [Compound 21.4]	did not inhibit AT1R internalization	lacks Ras and MAPK inhibitory activities	lacks Ras and MAPK inhibitory activities; also recorded: had no effect	MDA-MB-231 cell proliferation (confluency) (MDA-MB-231 cells [3]): only 21.8, which efficiently inhibits MAPK as well as Rasarfin, inhibited cell proliferation; metabolic activity of MDA-MB-231 cells (MTT) (MDA-MB-231 cells [4]; 10 µM): moderately decreasing the metabolic activity of cancer cells; cell viability (MTT signal) (MDA-MB-231 cells [4]; 24h): 0.2634 and 0.244 and 0.2; cell viability (MTT signal) (MDA-MB-231 cells [4]; 48h): 0.339 and 0.3215 and 0.2045
Cc1[nH]c2cc(Cl)cc(Cl)c2c1CCN [DCAI, 4,6-dichloro-2-methyl-3-aminoethyl-indole]				SOS binding to Ras and nucleotide exchange (Ras): blocks SOS binding to Ras but only inhibits the nucleotide exchange catalyzed by SOS
CCC(=O)N1CCN(c2ccc(NC(=O)c3cccs3)cc2Cl)CC1 [Compound 21.7]	loss of compounds’ efficacy to inhibit AT1R internalization	lost their ability to inhibit MAPK	had no effect	

From publication PMC8333425, “Discovery of a dual Ras and ARF6 inhibitor from a GPCR endocytosis screen” (Nature Communications, 2021)
